Reference: patent US20250368648A1, “MULTI-CYCLIC IRAK AND FLT3 INHIBITING COMPOUNDS AND USES THEREOF” (CHILDREN'S HOSPITAL MEDICAL CENTER, priority 2022, published 2025)
Numbering of substitutions follows the chain as printed.

Legend:
FLT3 K663Q = molecular target: T1, FLT3 K663Q (Homo sapiens, UniProt P36888, K663Q); assay: DiscoverX KINOMEscan competition binding, FLT3 K663Q; settings: no ATP
T1 construct: purchased DiscoverX (KINOMEscan); host or cells: E. coli (T7 phage) or HEK-293
T1 sequence (P36888 27-993 K663Q): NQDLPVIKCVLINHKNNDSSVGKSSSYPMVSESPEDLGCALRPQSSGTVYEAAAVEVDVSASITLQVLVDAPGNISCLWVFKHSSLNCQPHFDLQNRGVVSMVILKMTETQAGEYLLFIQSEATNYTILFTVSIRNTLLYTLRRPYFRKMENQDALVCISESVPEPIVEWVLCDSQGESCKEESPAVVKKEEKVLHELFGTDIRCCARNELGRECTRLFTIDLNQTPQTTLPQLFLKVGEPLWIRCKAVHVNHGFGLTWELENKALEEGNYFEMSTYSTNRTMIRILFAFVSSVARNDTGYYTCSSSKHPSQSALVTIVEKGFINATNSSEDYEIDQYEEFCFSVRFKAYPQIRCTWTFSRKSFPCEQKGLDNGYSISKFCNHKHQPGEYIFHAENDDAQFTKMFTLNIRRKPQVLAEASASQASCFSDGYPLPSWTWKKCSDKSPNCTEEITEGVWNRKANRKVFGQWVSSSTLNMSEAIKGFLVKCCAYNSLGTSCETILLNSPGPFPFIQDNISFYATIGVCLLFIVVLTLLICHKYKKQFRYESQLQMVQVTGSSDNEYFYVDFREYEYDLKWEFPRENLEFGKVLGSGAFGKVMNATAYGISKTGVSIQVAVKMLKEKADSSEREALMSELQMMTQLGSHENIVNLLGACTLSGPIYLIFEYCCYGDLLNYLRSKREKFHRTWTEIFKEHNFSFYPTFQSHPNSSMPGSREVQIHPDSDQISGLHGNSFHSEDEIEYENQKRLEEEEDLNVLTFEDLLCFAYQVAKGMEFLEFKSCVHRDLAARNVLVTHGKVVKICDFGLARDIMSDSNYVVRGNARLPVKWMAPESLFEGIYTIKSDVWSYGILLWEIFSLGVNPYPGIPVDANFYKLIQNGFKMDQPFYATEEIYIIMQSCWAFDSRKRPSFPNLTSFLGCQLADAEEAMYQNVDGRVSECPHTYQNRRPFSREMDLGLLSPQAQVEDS
Description: (§1) Kinase binding data were obtained for various exemplary compounds prepared according to Examples 2-15 using the DiscoverX KINOMEscan® active site-directed competition binding site-directed assay protocol described below. […] As a result, the data report thermodynamic interaction affinities (Kd values), rather than IC50 values that are dependent on ATP concentrations. The assay uses a DNA-tagged version of the protein kinase, and an immobilized ligand bound to a solid support. Compounds that directly or indirectly prevent kinase binding to the immobilized ligand reduce the amount of kinase captured on the solid support, which is detected using an ultra-sensitive qPCR method. Affinity constants reported from the assay have been reported to be independent of the immobilized ligand used that is coupled to the solid support (See supplemental information in Fabian, M. A. et. al., (2005) Nat. […] Wodicka, L. […] Biol. 17, 1241-1249.) Kinase-tagged T7 phage strains were prepared in an E. coli host derived from the BL21 strain. E. coli were grown to log-phase and infected with T7 phage and incubated with shaking at 32° C. until lysis. […] Kds were determined using an 11-point 3-fold compound dilution series with three DMSO control points. […] The kinase concentration in the eluates was measured by qPCR. Binding constants (Kds) were calculated with a standard dose-response curve using the Hill equation. […]

FLT3 R834Q = molecular target: T2, FLT3 R834Q (Homo sapiens, UniProt P36888, R834Q); assay: DiscoverX KINOMEscan competition binding, FLT3 R834Q; settings: no ATP
T2 construct: purchased DiscoverX (KINOMEscan); host or cells: E. coli (T7 phage) or HEK-293
T2 sequence (P36888 27-993 R834Q): T1 sequence (P36888 27-993 K663Q) with Q637K, R808Q
Description: as §1

COc1cc2ncc(-c3nc(N[C@H]4CNCC[C@@H]4F)c(F)cc3F)n2nc1C1CCC1 [Compound 15a, 6-(6-cyclobutyl-7-methoxyimidazo[1,2-b]pyridazin-3-yl)-3,5-difluoro-N-((3S,4S)-4-fluoropiperidin-3-yl)pyridin-2-amine]
Kd (FLT3 K663Q): 0.62 nM | Kd (FLT3 R834Q): 0.81 nM
